The source of these data is patent US20240009314A1, “COMPOSITIONS AND METHODS FOR TARGETING TUMOR-ASSOCIATED MACROPHAGES” (Resolute Science, priority 2020, published 2024).

Each structure is given as a SMILES string.

In one data set the test system is MC38 tumor cells. Briefly: Anti-tumor activity in MC38 colon cancer mouse model. Particulars: 40 mg/kg intraperitoneally q3 days×4. In kind it is in vivo.
For the next data set, the system named is GL261 cells. Briefly: Anti-tumor activity in immunocompetent GL261 glioma mouse model. In kind it is in vivo. How it is done: The anti-tumor activity of Target-5 was assessed in vivo using an immunocompetent glioma mouse model. Three distinct doses of Target-5 were evaluated against Temozolomide, an FDA-approved chemotherapeutic agent, and a vehicle control in C57BL/6 mice.
Specifically, female C57BL/6 mice (Jackson Laboratories) were inoculated with 5×10^6 GL261 cells (mycoplasma tested-negative) with 96% viability and 100% tumor take rate (cell passages prior to plating (#7)).
Target-5 was formulated in 0.9% saline and the mice were treated twice a week with either 5 mg/kg, 7.5 mg/kg, or 10 mg/kg Target-5 by tail vein injection. The dosing volume was adjusted for body weight. Temozolomide was formulated in 10% DMSO in 0.9% sodium chloride and mice were treated twice a week by gavage at a dosage of 12.5 mg/kg. n=10 for each group.

Experimental for MC38 tumor cells: Specifically, 8- to 12-week-old C57BL/6 female mice (Charles River Laboratories) were inoculated with 5×10^5 MC38 tumor cells in 0% Matrigel subcutaneously in the flank in a volume of 0.1 mL/mouse on Study Day 0. A pair match was performed when the tumors reached an average size of 80-120 mm 3 at which time treatment began.
The dosing volume was adjusted for body weight. Gemcitabine was administered at a dosage of 40 mg/kg and delivered intraperitoneally q3 days×4. Tumor was measured by calipers twice a week. Body weight was measured every day for 5 days and then bi-weekly to the end of the study. (n=10/group). The endpoint of study was when tumor volume reached 1500 mm^3.

With `Nc1ccn([C@@H]2O[C@H](CO)[C@@H](O)C2(F)F)c(=O)n1` [Gemcitabine], the “tumor volume compared to Target-5 groups” value with MC38 tumor cells is “appeared to reduce tumor volume more”. `Cn1nnc2c(C(N)=O)ncn2c1=O` [temozolomide]: in the data set with GL261 cells (any treatment group, FIG. 8C), the “change in body weight” value is “no significant change”. In the data set on GL261 cells (day 21, 12.5 mg/kg twice a week by gavage), this compound came in with a Mean tumor volume of 302.6 mm^3.
